Laboratory results reported in patent US20260223897A1, “SIAMENOSIDE I SWEETENED BEVERAGES WITH MOGROSIDE BLENDS” (The Coca-Cola Company, priority 2023, published 2026).

Experiments:
[1] = cited from earlier work
panelists [2] = test: Example 1 paired taste test: panelists select the more bitter sample; type: in vivo
Procedure: The sample was tested within 24 hours at room temperature.
Taste tests were carried out with 7-9 panelists and run singlet to triplet.

panelists [3] = test: Example 2 paired sensory test: higher syrupy mouthfeel; conditions: Table 10; Sample A = 400 ppm Siamenoside I alone vs Sample B (blend, 400 ppm total)
panelists [4] = test: Example 3 paired sensory test: higher licorice flavor; type: in vivo; conditions: Table 14; Sample A = 500 ppm Siamenoside I alone vs Sample B (tri-blend of same row, 500 ppm total)
Procedure: Samples were tested within 7 days.
Sensory tests were carried out with 8-12 panelists. Each pair of mogroside blends was evaluated by each panelist in triplet.

panelists [5] = test: Example 2 paired sensory test: higher licorice flavor; conditions: Table 7; Sample A = 400 ppm Siamenoside I alone vs Sample B (blend, 400 ppm total)
panelists [6] = test: Example 3 paired sensory test: more bitter sample; type: in vivo
Procedure: Samples were tested within 7 days. […] Each pair of mogroside blends was evaluated by each panelist in triplet.

panelists [7] = test: Example 2 paired sensory test: more bitter sample; type: in vivo; conditions: Table 6

C[C@H](CC[C@@H](O[C@@H]1O[C@H](CO[C@@H]2O[C@H](CO)[C@@H](O)[C@H](O)[C@H]2O)[C@@H](O)[C@H](O)[C@H]1O[C@@H]1O[C@H](CO)[C@@H](O)[C@H](O)[C@H]1O)C(C)(C)O)[C@H]1CC[C@@]2(C)[C@@H]3CC=C4[C@@H](CC[C@H](O[C@@H]5O[C@H](CO)[C@@H](O)[C@H](O)[C@H]5O)C4(C)C)[C@]3(C)[C@H](O)C[C@]12C [Siamenoside I]
taste balance compared with mogroside V ([1]; WO 2018213683 A1): better balance in sweetness, bitterness, sweet linger, astringency, and mouthfeel than mogroside V | sensory properties at high concentrations ([1]; high purity, concentrations required to achieve a sucrose equivalence to 10° Brix): significant off-tastes such as licorice, metallic and bitter tastes, as well as sweetness lingering and bitter lingering | Number of Panelists that chose A as more bitter (panelists [2]; Table 1, Sample A = 400 ppm siamenoside alone vs Sample B (blend of same row, 400 ppm total mogroside), filtered water): 15 | Number of Panelists that chose A as more bitter (panelists [2]; Table 2, Sample A = 400 ppm Siamenoside I alone vs Sample B (blend, 400 ppm total)): 6 | Number of Panelists that chose A as more bitter (panelists [2]; Table 3, Sample A = 400 ppm Siamenoside I alone vs Sample B (blend, 400 ppm total)): 10 | Number of Panelists that chose A as more bitter (panelists [2]; Table 3, Sample A = 500 ppm Siamenoside I alone vs Sample B (blend, 500 ppm total)): 7 | Number of Panelist to choose A as higher syrupy mouthfeel (panelists [3]): 7 | Number of Panelist to choose A as higher licorice flavor (panelists [4]): 23 | Number of Panelist that chose A as higher licorice flavor (panelists [5]): 20 | Number of Panelist to choose A as more bitter (panelists [6]; Table 11, Sample A = 500 ppm Siamenoside I alone vs Sample B (tri-blend, 500 ppm total)): 19 | Number of Panelist to choose A as more bitter (panelists [6]; Table 13, Sample A = 500 ppm Siamenoside I alone vs Sample B (blend, 500 ppm total)): 16 | Number of Panelists that chose A as more bitter (panelists [7]; Sample A = 400 ppm Siamenoside I alone vs Sample B (blend, 400 ppm total)): 17 | Number of Panelists that chose A as more bitter (panelists [7]; Sample A = 500 ppm Siamenoside I alone vs Sample B (blend, 500 ppm total), Sample B with 400 ppm of Siamenoside I): 12 | Number of Panelists that chose A as more bitter (panelists [7]; Sample A = 500 ppm Siamenoside I alone vs Sample B (blend, 500 ppm total), Sample B with 450 ppm of Siamenoside I): 15 | Number of Panelists that chose A as more bitter (panelists [7]; Sample A = 500 ppm Siamenoside I alone vs Sample B (blend, 500 ppm total), Sample B with 487.5 ppm of Siamenoside I): 13
